The text below walks through data of PubChem BioAssay (NCI).

Assay in all cases: growth of human tumour cells (NCI), 48 h
Assay [1] has as its system HOP-92 NSCLC.
Assay [2] has as its system SR leukemia.
The test system of assay [3] is PC-3 prostate.
In assay [4] the test system is OVCAR-4 ovarian.
Assay [5] has as its system SK-MEL-5 melanoma.
Assay [6] concerns NCI/ADR-RES ovarian.
For assay [7], the system named is OVCAR-8 ovarian.
The test system of assay [8] is MALME-3M melanoma.
The test system of assay [9] is SK-MEL-28 melanoma.
Assay [10] has as its system COLO 205 colon.
Assay [11] relates to SNB-19 CNS.
For assay [12], the system named is SNB-75 CNS.
The test system of assay [13] is SF-268 CNS.
The subject of assay [14] is HOP-62 NSCLC.
For assay [15], the system named is T-47D breast.
Assay [16] deals with CAKI-1 renal.

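Values below derive from 48-hour exposures of cells grown in 96-well plates, with endpoints linearly interpolated between the two concentrations bracketing the appropriate inhibition level. TGI marks complete inhibition of growth.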

For `CC(=O)OC1CC2C(=O)CC1(C)C2(C)C` (configuration not stated), the TGI in assay [1], in assay [2], in [3], in assay [4], in assay [5] and in assay [6] was over 100 µM throughout. In addition, the TGI in assay [7], in assay [8], in assay [9], in assay [10], in assay [11] and in assay [12] was over 100 µM throughout. For the same compound, the TGI in assay [13], in assay [14], in assay [15] and in assay [16] was over 100 µM in each case.

As to `CC(C)NC(=O)OCc1c(COC(=O)NC(C)C)c(-c2cc[n+](COC(=O)Cc3ccccc3)cc2)n2c1CCC2`, the TGI in assay [1], in assay [2], in assay [3], in assay [4], in [5] and in assay [6] was over 100 µM in each case. For the same compound, the TGI in assay [7], in [8], in assay [9], in [10], in assay [11] and in assay [12] was over 100 µM in each case. Further, the TGI in assay [13], in assay [14], in assay [15] and in assay [16] was over 100 µM each time.

On to `Cc1ccc(C(CCO)CCO)nc1`, for which the TGI in assay [1], in assay [2], in assay [3], in [4], in assay [5] and in assay [6] was over 100 µM each time. In addition, the TGI in [7], in [8], in [9], in [10], in assay [11] and in assay [12] was over 100 µM each time. In addition, the TGI in assay [13], in [14], in assay [15] and in [16] was over 100 µM in each case.

Turning to `Oc1c(Cl)c(Cl)c(O)c(-c2cnc(-c3ncc(-c4c(O)c(Cl)c(Cl)c(O)c4Cl)s3)s2)c1Cl`, the TGI is over 100 µM in assay [1]; over 100 µM in assay [2]; over 100 µM in assay [3]; over 100 µM in [4]; 30.1 µM in assay [5]; 71.6 µM in [6]. In addition, the TGI worked out at 52.7 µM in [7]; 71.3 µM in assay [8]; 75.6 µM in [9]; 97.2 µM in assay [10]; 88.1 µM in [11]; 71.7 µM in assay [12]. Besides, the TGI was 55.3 µM in assay [13], over 100 µM in assay [14], over 100 µM in assay [15] and 41.2 µM in [16].

`Cc1c2c(n3c(nc4ccccc43)c1C#N)NCC2`: the TGI in assay [1], in assay [2], in assay [3], in assay [4], in [5] and in assay [6] was over 10 µM throughout. For the same compound, the TGI in [7], in assay [8], in assay [9], in assay [10], in assay [11] and in [12] was over 10 µM each time. The TGI in assay [13], in assay [14], in assay [15] and in assay [16] was over 10 µM in each case.

For the compound `CC(C)(C)c1cc(OCc2n[nH]c(=S)n2N)c(Cl)cc1OCc1n[nH]c(=S)n1N`, the TGI in [1] is over 100 µM; in assay [2], over 100 µM; in assay [3] it was over 100 µM; in assay [4], over 100 µM; in assay [5] it was 54.6 µM; in assay [6], over 100 µM. Besides, the TGI in assay [7], in [8], in [9], in [10], in assay [11] and in assay [12] was over 100 µM each time. Besides, the TGI in [13], in assay [14], in assay [15] and in assay [16] was over 100 µM in each case.

Turning to `CC(c1ccccc1)n1c2ccccc2c2c(N)ncnc21` (configuration not stated), the TGI in [1] was 27.6 µM; in [2] it was 56.7 µM; in assay [3], 34.4 µM; in [4], 31.2 µM; in [5], 33.9 µM; in assay [6], 46.3 µM. Further, the TGI in assay [7] is 31.8 µM; in assay [8], 36 µM; in [9], 33.8 µM; in assay [11], 33.8 µM; in assay [12], 9.19 µM; in assay [13], 43.5 µM. Also, the TGI turned out to be 31.9 µM in assay [14], 59.6 µM in assay [15] and 62.2 µM in assay [16].

For `CCOC(=O)Cc1ccc(Nc2nc3cc(F)c(F)cc3nc2C(=O)OCC)cc1`, the TGI in [1] is 54.6 µM; in assay [2] it was over 100 µM; in assay [3] it was over 100 µM; in assay [4], over 100 µM; in [5], over 100 µM; in assay [6], over 100 µM. The TGI in [7], in assay [8], in [9], in [10], in assay [11] and in assay [12] was over 100 µM each time. Moreover, the TGI in [13] was over 100 µM; in assay [14] it was over 100 µM; in assay [15], over 100 µM; in [16], 42.9 µM.

Turning to `CC(=O)O[C@H]1C(=O)[C@@]2(C)[C@H]([C@H](OC(=O)c3ccccc3)[C@]3(O)C[C@H](OC(=O)[C@H](O)[C@@H](NC(=O)OC(C)(C)C)c4ccco4)C(C)=C1C3(C)C)[C@]1(OC(C)=O)CO[C@@H]1C[C@@H]2O`, the TGI is 43.5 µM in [1]; over 29 µM in assay [2]; over 50 µM in assay [3]; over 50 µM in assay [4]; 19 µM in assay [5]; 0.643 µM in assay [6]. For the same compound, the TGI in [7] was over 50 µM; in assay [8], over 47 µM; in assay [9] it was over 28.3 µM; in assay [10], under 0.005 µM; in assay [11], over 50 µM; in assay [12], under 0.005 µM. Moreover, the TGI in [13] is over 50 µM; in assay [14] it was 0.601 µM; in [15], over 50 µM; in assay [16], over 50 µM.

Turning to `O=C(O)c1ccc(Nc2nc3ccc(C(F)(F)F)cc3nc2C(=O)O)cc1`, the TGI in assay [1], in assay [2], in [3], in assay [4], in [5] and in assay [6] was over 100 µM each time. The TGI in assay [7], in assay [8], in [9], in assay [10], in assay [11] and in assay [12] was over 100 µM throughout. Besides, the TGI in assay [13], in assay [14], in assay [15] and in assay [16] was over 100 µM in each case.

With `C/C1=C\CC[C@@]2(C)O[C@@H]2C[C@@H]2[C@H](C/C(C)=C/CC1)OC(=O)[C@]21CO1`, the TGI in assay [1], in assay [2], in assay [3], in assay [4], in assay [5] and in assay [6] was over 100 µM each time. Besides, the TGI in assay [7], in [8], in assay [9], in [10], in [11] and in assay [12] was over 100 µM throughout. Besides, the TGI in assay [13], in assay [14], in [15] and in assay [16] was over 100 µM each time.

For `O=[N+]([O-])c1ccc(C2NC(=S)NC3c4cc([N+](=O)[O-])ccc4CCCC23)cc1` (configuration not stated), the TGI in assay [1] was 45.5 µM; in assay [2] it was over 100 µM; in assay [3], over 100 µM; in assay [4] it was over 100 µM; in assay [5] it was over 100 µM; in [6], over 100 µM. In addition, the TGI in [7] is over 100 µM; in assay [8], over 100 µM; in assay [9] it was over 100 µM; in [10], over 100 µM; in assay [11], over 100 µM; in assay [12], 44.2 µM. Also, the TGI in [13], in assay [14], in assay [15] and in [16] was over 100 µM in each case.

For `CC(C)C1CCC(=O)CC1CCCCC1CC(=O)CC1O[Si](C)(C)C(C)(C)C` (configuration not stated), the TGI in [1] is 13.1 µM; in assay [2], over 35.1 µM; in assay [3] it was 43.1 µM; in assay [4], 29.3 µM; in assay [5], 12.6 µM; in assay [6], 21.2 µM. The TGI was 13 µM in assay [7]; 19.1 µM in assay [8]; 19.7 µM in [9]; 21.5 µM in assay [10]; 13.2 µM in [11]; 26 µM in assay [12]. Also, the TGI in [13] came to 7.74 µM; in [14] it was 33.7 µM; in [15], 46.9 µM; in assay [16] it was 19.4 µM.

Take `S=C1C(CCCOCc2ccccc2)C2CCCC23CC2(CCN13)OCCS2` (configuration not stated): the TGI in [1], in [2], in assay [3], in [4], in [5] and in [6] was over 10 µM throughout. In addition, the TGI in assay [7], in [8], in [9], in assay [10], in assay [11] and in [12] was over 10 µM each time. Further, the TGI in [13], in assay [14], in assay [15] and in assay [16] was over 10 µM each time.

In the case of `COC(=O)N1C2C(C[C@@]1(C)C(=O)OC)c1ccccc1N2S(=O)(=O)c1ccccc1` (some centres not stated), the TGI in [1], in [2], in [3], in [4], in assay [5] and in [6] was over 100 µM throughout. Also, the TGI in assay [7], in assay [8], in assay [9], in assay [10], in assay [11] and in [12] was over 100 µM in each case. Moreover, the TGI in [13], in assay [15] and in [16] was over 100 µM in each case.

Turning to `Cc1ccc(/C=C2\CCS(=O)(=O)c3ccccc3C2=O)cc1`, the TGI in assay [1] was determined as 31 µM; in assay [2], 63.7 µM; in [3] it was 45.3 µM; in [4] it was 34.8 µM; in assay [6] it was 28.2 µM; in assay [7] it was 30.7 µM. In addition, the TGI stood at 39.1 µM in assay [9]; 30.2 µM in assay [10]; 36.5 µM in assay [11]; 32.9 µM in assay [12]; 51.6 µM in assay [13]; 80.4 µM in [14]. For the same compound, the values for the TGI in [15] and in assay [16] were 32.6 µM and 33.2 µM, respectively.

As to `O=C(O)CCC1(CCC(=O)O)CCCCCCCCC(CCC(=O)O)(CCC(=O)O)C(=O)C1=O`, the TGI in assay [1], in assay [2], in [3], in assay [4], in assay [6] and in assay [7] was over 100 µM each time. The TGI in [8], in [9], in [10], in [11], in [12] and in [13] was over 100 µM in each case. Also, the TGI in [14], in assay [15] and in assay [16] was over 100 µM each time.
